Data set [1] deals with E. coli.
Data set [2] deals with E. carotovora.
For data set [3], the system named is R. solanacearum. The format is cell-based. Particulars: Oxford cup, 37° C., 16-18 hours, FIG. 1.
Data set [4] concerns R. solanacearum. As to conditions: for bactericidal activity against R. solanacearum: from data in Table 4.

For `O=C(O)c1cn(C2CC2)c2ccccc2c1=O` [Compound I2], the results for the median lethal concentration (LC50) in data set [1], in data set [2] and in data set [4] were 0.913 ppm, 5.284 ppm and 13.790 ppm, respectively. The “activity against E. coli compared with the control drugs” value in data set [1] is reported as “more active against E. coli than the control drugs”. Further, the “bactericidal activity (zone of inhibition), preliminary screening” value in data set [3] is “significant bactericidal activity”.
`CCn1cc(C(=O)O)c(=O)c2ccc(C)nc21` [Compound I36]: the figures for the LC50 in data set [1], in data set [2] and in data set [4] were 37.917 ppm, 15.743 ppm and 30.519 ppm, respectively. For the same molecule, the “bactericidal activity (zone of inhibition), preliminary screening” value in data set [3] is “significant bactericidal activity”.
For the molecule `CCn1cc(C(=O)O)c(=O)c2cc(F)c(Cl)nc21` [Compound I38], the figures for the 50% lethal concentration (LC50) in data set [1], in data set [2] and in data set [4] were 12.643 ppm, 0.264 ppm and 12.724 ppm, respectively. The “activity against E. carotovora compared with the control drugs” value in data set [2] is on record as “more active against E. carotovora than the control drugs”. Besides, in data set [3], the “bactericidal activity (zone of inhibition), preliminary screening” value is on record as “significant bactericidal activity”.
`O=C(O)c1cn(C2CC2)c2nc(Cl)c(F)cc2c1=O` [Compound I40]: in data set [1], the LC50 is recorded as 0.064 ppm and the “activity against E. coli compared with the control drugs” value is on record as “more active against E. coli than the control drugs”. For the same molecule, in data set [2], the LC50 is given as 4.040 ppm and the “activity against E. carotovora compared with the control drugs” value was “more active against E. carotovora than the control drugs”. In data set [3], the “bactericidal activity (zone of inhibition), preliminary screening” value was “significant bactericidal activity”. In addition, in data set [4], the LC50 was found to be 0.002 ppm and the “bactericidal activity against R. solanacearum” value is given as “significant bactericidal activity”.
Consider `O=C(O)c1cn(C2CC2)c2nc(N3CCNCC3)c(F)cc2c1=O` [Compound I44], for which, in data set [1], the LC50 is listed as 0.0000091 ppm and the “activity against E. coli compared with the control drugs” value is on record as “more active against E. coli than the control drugs”. Moreover, in data set [2], the median lethal concentration (LC50) was 0.00018 ppm and the “activity against E. carotovora compared with the control drugs” value is “more active against E. carotovora than the control drugs”. Moreover, the “bactericidal activity (zone of inhibition), preliminary screening” value in data set [3] is “significant bactericidal activity”. In addition, in data set [4], the LC50 was 0.284 ppm and the “bactericidal activity against R. solanacearum” value is “significant bactericidal activity”.
In the case of `[H]/N=C(/N)N[C@H]1[C@H](O)[C@@H](O)[C@H](O[C@@H]2O[C@@H](C)[C@](O)(C=O)[C@H]2O[C@@H]2O[C@@H](CO)[C@H](O)[C@@H](O)[C@@H]2NC)[C@@H](N/C(N)=N\[H])[C@@H]1O` [Streptomycin, reference compound], the LC50 is 1.918 ppm in data set [1], 4.519 ppm in data set [2] and 0.169 ppm in data set [4].

By LC50 is commonly meant the concentration lethal to half of the exposed cells or organisms.

The values above are taken from patent publication US20240215578A1 (priority 2022, published 2024).
